Results as given in patent publication US9901591B2, “Paeoniflorin preparations and uses thereof for fat reduction” (priority 2008, dated 2018).
Several values for one entry are separate records, joined by “and”; a condition that tells them apart may be missing. Equal values may be shown once.

Tests used:
intracellular cyclic AMP = test: Intracellular cyclic AMP by ELISA in 3T3-L1 adipocytes; format: cell-based, mouse; conditions: PF, vs control
Method: 3T3-L1 adipocytes were cultured in medium containing […] PF as test group and medium only as control. Cells were lysed by adding 0.1 N HCL, and intracellular cyclic AMP was measured by ELISA.

[1] = test system: Hormone sensitive lipase (HSL); test: Semi-quantitative RT-PCR of HSL expression in 3T3-L1 adipocytes; format: cell-based, mouse; conditions: 1 mol/L PF, from the third day after exposure
Method: 3T3-L1 adipocytes were cultured in medium containing […] PF as a test group and medium only as the control group. Total RNA was extracted and reverse transcribed to cDNA employing conventional methods known to those of skill in the art. Primers used for polymerase chain reaction (PCR) amplification of mouse HSL primers were selected based on published sequence (NM_010719) (expected PCR fragment: 409 bp): For semi-quantitative analysis, the amplification cycles were chosen within the linear range (HSL: 24 cycles with […] at 58° C., GAPDH: 21 cycles with […] at 58° C.).

[2] = test system: Adiponectin receptor 1 (Adipor1); test: Oligo GEArray microarray of obesity-related genes in 3T3-L1 adipocytes; format: cell-based, mouse; conditions: for Ratio of expression signals of Adipor1 compared to control: 1 umol/L PF, control = 1
Method: (§1) 3T3-L1 adipocytes were cultured in medium containing 1 umol/L PF as test group and medium only as control. Total RNA was extracted and Oligo GEArray was tested using Superarray OMM-17. The GEArray includes 111 obesity-related genes that are directly involved in the regulation of energy intake and expenditure. The genes included orexigenic peptides, hormones, and receptors, anorectic peptides, hormones, receptors, and central and peripheral signaling molecules involved in energy expenditure. The increase changes or decrease changes of more than 1.5 fold are regarded meaningful according to the diagnosis discipline, as described in the insert literature of a metabolic disease/obesity gene panel product purchased from Superarray Bioscience Corporation. (Frederick, Md.). […] In the graphs, the data above the upper line and the data below the lower line show a significant change of gene expression.

Adra2b = test: as above; format: cell-based, mouse; conditions: for Ratio of expression signals of Adra2b compared to control: 3T3-L1 adipocytes, 1 umol/L PF, control = 1
Method: as §1

Adrb2 = test: as above; format: cell-based, mouse; conditions: for Ratio of expression signals of Adrb2 compared to control: 1 umol/L PF, control = 1
Method: as §1

Adrb3 = test: as above; format: cell-based, mouse; conditions: for Ratio of expression signals of Adrb3 compared to control: 1 umol/L PF, control = 1
Method: as §1

[3] = test system: Peroxisome proliferators activated receptor gamma (Pparg); test: as above; format: cell-based, mouse; conditions: for Ratio of expression signals of Pparg compared to control: 1 umol/L PF, control = 1
Method: as §1

Carboxypeptidase E (Cpe) = test: as above; format: cell-based, mouse; conditions: for Ratio of expression signals of Cpe compared to control: 1 umol/L PF, control = 1
Method: 3T3-L1 adipocytes were cultured in medium containing 1 umol/L PF as test group and medium only as control. Total RNA was extracted and Oligo GEArray was tested using Superarray OMM-17. The GEArray includes 111 obesity-related genes that are directly involved in the regulation of energy intake and expenditure. The genes included orexigenic peptides, hormones, and receptors, anorectic peptides, hormones, receptors, and central and peripheral signaling molecules involved in energy expenditure. The increase changes or decrease changes of more than 1.5 fold are regarded meaningful according to the diagnosis discipline, as described in the insert literature of a metabolic disease/obesity gene panel product purchased from Superarray Bioscience Corporation. (Frederick, Md.).
In the graphs, the data above the upper line and the data below the lower line show a significant change of gene expression.

[4] = Fat reduction with PF/azone creme and low current in patients; format: in vivo, human
Method: Concentration of PF included into the topical preparation: 0.2 mg to 0.3 mg of PF were dissolved in 1 ml of azone liquid.
A low current of […] is then passed through pads placed on the skin of the desired treatment area which then drives the PF through the skin into the adipose tissues, thus allowing the PF to come in contact with the fat cells.
The present preparations may be provided in the form of a creme containing 1 ml of PF at a concentration of 1 mmol mixed with 1 ml of azone which is then massaged into the target area. Azone has been extensively studied using a range of permeants. […] This process leads to increased lipid fluidity and enhanced drug diffusion. This is the reason PF was mixed with azone. Furthermore, a low current is then passed through the tissue area, which then drives the PF through the skin into the adipose tissues. PF may in this way come in contact with fat cells. The clinical results are show below and the details of each patient is documented.

[5] = human, in vivo
Method: For Regular Injections: After sterilization of the surface area with 74% ethanol, topical application of lignocaine ointment or lidocaine gel was applied for 5 minutes to numb the skin where the injections are to take place.
For Booster Injection: The patient is prepared using 1 ml of 2% lidocaine to anaesthetize the site of entry of the large needle. This way, the procedure is almost painless. 3-5 minutes later, the booster injection is given slowly over a 3 minute period.
Patients are forewarned that bruising may occur due to the injections. Thus, some bruising in a patient may be expected. […] The bruising, usually disappears within 1 week. In addition, redness and tenderness at the injection site of the booster, is very common. Redness lasts for a couple of hours and the tenderness lasts for a couple of days. Bruising, is encountered more with the booster than the regular injections, but also disappears within a week or so. Another observation is fatigue as a result of treatment in some patients. […] In addition, a very slight rise in temperature, to about 37.1 or 37.2 for a few hours, was noted.

[6] = Blood indices before and after PF treatment in patients; format: in vivo, human; conditions: before vs after treatment with PF
[7] = Targeted fat reduction with injectable PF preparation in patients; format: in vivo, human; conditions: alternative protocol, 20 small (0.1 to 0.2 ml) injections per session, 5 sessions
[8] = per patient, number of times as in table

## C[C@@]12C[C@@]3(O)O[C@@H](O1)[C@]1(COC(=O)c4ccccc4)[C@H]3C[C@@]12O[C@@H]1O[C@H](CO)[C@@H](O)[C@H](O)[C@H]1O [PF, paeoniflorin]
Intracellular cyclic AMP; first day / 24 hours
  intracellular cAMP: significantly increased
Intracellular cyclic AMP; third day / 72 hours
  intracellular cAMP: significantly increased
[1]
  expression of HSL: increased the expression of HSL
[2]; 3 days
  Ratio of expression signals of Adipor1 compared to control: 0.68
[2]; 6 days
  Ratio of expression signals of Adipor1 compared to control: 1.21
[2]; 7 days
  Ratio of expression signals of Adipor1 compared to control: 1.86
[2]; day 7 of exposure to PF
  increase of Adipor1 expression: 1.86 fold
Adra2b; 3T3-L1 adipocytes exposed to PF, whole study
  effect on expression of Adra2b: no effect on Adra2b
Adra2b; 3 days
  Ratio of expression signals of Adra2b compared to control: 0.92
Adra2b; 6 days
  Ratio of expression signals of Adra2b compared to control: 1.44
Adra2b; 7 days
  Ratio of expression signals of Adra2b compared to control: 1.27
Adrb2; 3 days
  Ratio of expression signals of Adrb2 compared to control: 0.74
Adrb2; 6 days
  Ratio of expression signals of Adrb2 compared to control: 1.96
Adrb2; 7 days
  Ratio of expression signals of Adrb2 compared to control: 7.40
Adrb2; 7 days post exposure to PF
  increase of Adrb2 expression: 7.4 fold
Adrb3; 3 days
  Ratio of expression signals of Adrb3 compared to control: 1.56
Adrb3; 6 days
  Ratio of expression signals of Adrb3 compared to control: 3.18
Adrb3; 7 days
  Ratio of expression signals of Adrb3 compared to control: 5.65
Adrb3; 7 days post exposure to PF
  increase of Adrb3 expression: 5.65 fold
[3]; 3 days
  Ratio of expression signals of Pparg compared to control: 0.91
[3]; 6 days
  Ratio of expression signals of Pparg compared to control: 1.09
[3]; 7 days
  Ratio of expression signals of Pparg compared to control: 0.64
[3]; day 7 of exposure to PF
  reduction of the level of expression of Pparg: 1.54 fold
Carboxypeptidase E (Cpe); 3 days
  Ratio of expression signals of Cpe compared to control: 0.79
Carboxypeptidase E (Cpe); 6 days
  Ratio of expression signals of Cpe compared to control: 1.04
Carboxypeptidase E (Cpe); 7 days
  Ratio of expression signals of Cpe compared to control: 2.67
Carboxypeptidase E (Cpe); day 7 of exposure to PF
  increase of Cpe expression compared to the control: 2.67 fold
[4]; patient #3, 6 times
  AMOUNT OF REDUCTION IN CM, each side of the upper thigh: 2 cm from each side of the upper
[4]; patient #4, 7 times
  AMOUNT OF REDUCTION IN CM, left buttock: 9 cm from the left buttock
  AMOUNT OF REDUCTION IN CM, right buttock: 8 cm from the right buttock &
[4]; patient #5, 8 times
  AMOUNT OF REDUCTION IN CM, each leg below the knees: 9 cm and 10 cm
[4]; patient #7, 9 times
  AMOUNT OF REDUCTION IN CM, left thigh: 6 cm
  AMOUNT OF REDUCTION IN CM, right thigh: 8 cm
[4]; patient #8, 30 times
  AMOUNT OF REDUCTION, bra size: 1.5 size in bra size
[4]; patient #12, 8 times
  AMOUNT OF REDUCTION IN CM, love handles: 10 cm from love handles and
[4]; [8]
  AMOUNT OF REDUCTION IN CM, above and below the umbilicus: 3.5 cm above and below the
  AMOUNT OF REDUCTION IN CM, above the umbilicus: 7 cm and 6 cm and 10 cm above the umbilicus, and 9 cm above the umbilicus. 9 cm
  AMOUNT OF REDUCTION IN CM, below the umbilicus: 9 cm and 9.5 cm below the umbilicus and 6 cm below the umbilicus
  AMOUNT OF REDUCTION IN CM, midsection: 10 cm and 5 cm from the waist and 5 cm and 9 cm above the umbilicus. 9 cm
[5]
  bruising: bruising was observed
  diarrhea: No diarrhea was observed
  dizziness: observed in a few patients
  fatigue: Two patients suffered from fatigue
  redness and tenderness at the injection site: very common
  rise in temperature: about 37.1 or 37.2
  stool: softer stool was reported
  time until bruising disappears: ≤ 1 week
[6]
  blood sugar levels: decreased upon treatment
[7]
  measurable fat loss: 3 cm
